Patent publication US10858342B2, “Bicyclic imidazole derivatives useful for the treatment of renal diseases, cardiovascular diseases and fibrotic diseases” (Boehringer Ingelheim International GmbH, priority 2016, dated 2020)
Where two headings read alike, the source gives them in different places.

What was measured:
Format in all cases: biochemical, cynomolgus monkey
[1] = molecular target: cortisol synthase (CYP11B1) (Macaca fascicularis, UniProt A0A2K5ULY1); test: Inhibition of cortisol synthesis (cynomolgus adrenal mitochondria, cortisol by mass spectrometry)
Method: The aldosterone synthase and cortisol synthase inhibition assays employ cynomolgus adrenal gland mitochondria as the source of aldosterone synthase (CYP11B2) and cortisol synthase (CYP11B1). Mitochondria are prepared from frozen cynomolgus monkey adrenal glands according to Method A described in by J. D. McGarry et al. (Biochem. J., 1983, 214, 21-28), with a final resuspension in the AT buffer described in R. Yamaguchi et al. (Cell Death and Differentiation, 2007, 14, 616-624), frozen as aliquots in liquid nitrogen and stored at −80° C. until use. One unit of CYP11B2 and CYP11B1 activity in these preparations is defined as the amount of enzyme that generates 1 pmol of product in one hour under the conditions described.
(§1) Assays are performed in 96-well format in a final volume of 60 microL/well, containing 100 mM potassium phosphate, pH 7.4, 1% (v/v) DMSO, and additionally, 2 μM of corticosterone and 50 units of CYP11B2 activity. Reactions are started by the addition of NADPH to 1 mM and allowed to proceed for 90 minutes at 37° C. Reactions are terminated by the addition of 60 μL of MeCN containing an internal standard for mass spectrometry. One hundred microliters are then transferred to a glass filter plate and centrifuged at 570×g for 5 minutes and the filtrate is collected. Reaction product aldosterone is quantified by mass spectrometry. To determine the assay blank value (0% activity), NADPH is omitted from some reactions.
Dose dependent inhibition is quantified by the inclusion of compound at various concentrations. Maximum activity (100%) is defined by reactions containing NADPH, but without compound. Activities at each concentration are expressed as a percentage of the maximum activity (y-axis) and plotted against concentration of compound (x-axis) and the concentration corresponding to 50% activity (IC50) determined using the XLFit curve-fitting program using a 4-parameter logistic model.
Assays are performed as for aldosterone synthase except for the use of 150 units of CYP11B1, 11-deoxycortisol as substrate and cortisol measured as product.

[2] = test system: aldosterone synthase (CYP11B2); test: Inhibition of aldosterone synthase (cynomolgus adrenal mitochondria, aldosterone by mass spectrometry); conditions: selectivity for aldosterone synthase inhibition over cortisol synthase (CYP11B1) inhibition, fold
Method: (§2) The aldosterone synthase and cortisol synthase inhibition assays employ cynomolgus adrenal gland mitochondria as the source of aldosterone synthase (CYP11B2) and cortisol synthase (CYP11B1). […] One unit of CYP11B2 and CYP11B1 activity in these preparations is defined as the amount of enzyme that generates 1 pmol of product in one hour under the conditions described.
(§3) The compounds of the invention may be evaluated for aldosterone synthase inhibition by the following assay:
as §1
(§4) Dose dependent inhibition is quantified by the inclusion of compound at various concentrations. Maximum activity (100%) is defined by reactions containing NADPH, but without compound.

[3] = molecular target: aldosterone synthase (CYP11B2) (Macaca fascicularis, UniProt A0A2K5UPL9); test: as above
Sequence of aldosterone synthase (CYP11B2) (Macaca fascicularis, UniProt A0A2K5UPL9) (A0A2K5UPL9 1-503): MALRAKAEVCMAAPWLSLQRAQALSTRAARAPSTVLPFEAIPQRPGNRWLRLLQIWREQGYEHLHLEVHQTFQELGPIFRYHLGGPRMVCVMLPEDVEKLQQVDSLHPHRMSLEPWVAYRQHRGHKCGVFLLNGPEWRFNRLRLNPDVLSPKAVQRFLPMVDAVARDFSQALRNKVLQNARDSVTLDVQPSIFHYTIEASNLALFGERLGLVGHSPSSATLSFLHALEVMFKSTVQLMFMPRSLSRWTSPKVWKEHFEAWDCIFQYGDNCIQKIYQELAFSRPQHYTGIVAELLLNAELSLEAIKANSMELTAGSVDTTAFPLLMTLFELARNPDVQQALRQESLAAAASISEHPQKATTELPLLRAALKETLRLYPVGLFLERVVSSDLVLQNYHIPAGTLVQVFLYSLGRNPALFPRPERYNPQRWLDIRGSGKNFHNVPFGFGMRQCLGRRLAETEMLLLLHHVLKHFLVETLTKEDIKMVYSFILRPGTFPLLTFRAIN
Method: as §2, §3, §1, §4

[4] = 11-deoxycortisol substrate, 150 units CYP11B1; read-out: Cortisol Inhibition IC50
[5] = 2 μM corticosterone substrate, 50 units CYP11B2, 90 min, 37° C., read-out: Aldosterone Inhibition IC50
[6] = read-out: Cortisol Inhibition IC50; 11-deoxycortisol substrate, 150 units CYP11B1

Compound | IC50 [1, 4] | Selectivity [2] | IC50 [3, 5] | IC50 [1, 6] | IC50 [3]
3-(4-Chloroophenyl)-6,6-spirocyclopropyl-3,5,6,7-tetrahydro-benzimidazolo-4-one [C-ACF] | 590 nM | 57 | 10 nM |  | 
3-(4-Cyanophenyl)-6,6-(3-tetrahydrofuran)-3,5,6,7-benzimidiazolo-4-one [C-ABA-B] | 850 nM | 53 | 16 nM |  | 
CCO[C@H]1C[C@H](n2cnc3c2C(=O)CC(C)(C)C3)C12CCC2 (relative stereo) [C-ADM, 3-((1S,3S)-3-Ethoxy-spiro[3.3]hept-1-yl)-6,6-dimethyl-3,5,6,7-tetrahydro-benzoimidazol-4-one] | > 30000 nM | 420 | 72 nM |  | 
C[C@@H]1Cc2cc(-n3cnc4c3C(=O)CCC4)ccc2O1 (stereo in doubt) [C-AAZ-A, 3-(2-Methyl-2,3-dihydro-benzofuran-5-yl)-3,5,6,7-tetrahydro-benzoimidazol-4-one] | > 30000 nM | 100 | 300 nM |  | 
C[C@H]1Cc2cc(-n3cnc4c3C(=O)CCC4)ccc2O1 (stereo in doubt) [C-AAZ-B, 3-(2-Methyl-2,3-dihydro-benzofuran-5-yl)-3,5,6,7-tetrahydro-benzoimidazol-4-one] | > 30000 nM | 430 | 70 nM |  | 
CC(=O)N1CCc2cc(-n3cnc4c3C(=O)CCC4)ccc21 [C-AAA, 3-(1-Acetyl-2,3-dihydro-1H-indol-5-yl)-3,5,6,7-tetrahydro-benzoimidazol-4-one] | > 30000 nM | 59 | 510 nM |  | 
O=C1CCCc2ncn(-c3ccc4c(c3)COC4)c21 [C-AAB, 3-(1,3-Dihydro-isobenzofuran-5-yl)-3,5,6,7-tetrahydro-benzoimidazol-4-one] | 23000 nM | 270 | 85 nM |  | 
CN1Cc2cc(-n3cnc4c3C(=O)CCC4)ccc2CC1=O [C-AAC, 2-Methyl-7-(7-oxo-4,5,6,7-tetrahydro-benzoimidazol-1-yl)-1,4-dihydro-2H-isoquinolin-3-one] | > 30000 nM | 42 | 720 nM |  | 
CN1C(=O)CCc2cc(-n3cnc4c3C(=O)CCC4)cnc21 [C-AAD, 1-Methyl-6-(7-oxo-4,5,6,7-tetrahydro-benzoimidazol-1-yl)-3,4-dihydro-1H-[1,8]naphthyridin-2-one] | > 30000 nM | 200 | 150 nM |  | 
O=C1CCCc2ncn(-c3ccc4c(c3)CCO4)c21 [C-AAE, 3-(2,3-Dihydro-benzofuran-5-yl)-3,5,6,7-tetrahydro-benzoimidazol-4-one] | 9400 nM | 890 | 11 nM |  | 
CC(=O)N1CCCc2cc(-n3cnc4c3C(=O)CCC4)ccc21 [C-AAF, 3-(1-Acetyl-1,2,3,4-tetrahydro-quinolin-6-yl)-3,5,6,7-tetrahydro-benzoimidazol-4-one] | 10000 nM | 270 | 37 nM |  | 
Cn1ncc2cc(-n3cnc4c3C(=O)CCC4)ccc21 [C-AAG, 3-(1-Methyl-1H-indazol-5-yl)-3,5,67,-tetrahydro-benzoimidazol-4-one] | > 30000 nM | 300 | 100 nM |  | 
Cn1ncc2ccc(-n3cnc4c3C(=O)CCC4)cc21 [C-AAH, 3-(1-Methyl-1H-indazol-6-yl)-3,5,67,-tetrahydro-benzoimidazol-4-one] | > 30000 nM | 630 | 48 nM |  | 
O=C1CCCc2ncn(-c3ccc4c(c3)OCCO4)c21 [C-AAI, 3-(2,3-Dihydro-benzo[1,4]dioxin-6-yl)-3,5,6,7-tetrahydro-benzoimidazol-4-one] | > 30000 nM | 180 | 160 nM |  | 
N#Cc1ccc(-n2cnc3c2C(=O)CC2(CCOCC2)C3)cc1Cl [C-AAQ, 3-(3-Chloro-4-cyano-phenyl)-6,6-3-o-tetrahydropyran-3,5,6,7-tetrahydro-benzoimidazol-4-one] |  |  | 44 nM | 2900 nM | 
CCOC(=O)C1CC(=O)c2c(ncn2-c2ccc(C#N)c(Cl)c2)C1 (stereo not drawn) [C-AAY, 1-(3-Chloro-4-cyano-phenyl)-7-oxo-4,5,6,7-tetrahydro-1H-benzoimidazole-5-carboxylic acid ethyl ester] |  |  | 7.3 nM | 5100 nM | 

Compound | IC50 [1, 4] | Selectivity [2] | IC50 [3, 5] | IC50 [1, 6] | IC50 [3]
CC(C)Oc1ccc(-n2cnc3c2C(=O)CC(C)(C)C3)cc1 [C-ABQ, 3-(4-Isoporopoxy-phenyl)-6,6-dimethyl-3,5,6,7-tetrahydro-benzoimidazol-4-one] | > 100000 nM |  | 280 nM |  | 
CC1(C)CC(=O)c2c(ncn2-c2cccc(C#N)c2)C1 [C-ABS, 3-(5,5-Dimethyl-7-oxo-4,5,6,7-tetrahydro-benzoimidazol-1-yl)-benzonitrile] | 10000 nM |  | 250 nM |  | 
Cc1ccc(-n2cnc3c2C(=O)CC(C)(C)C3)cc1C#N [C-ABY, 5-(5,5-Dimethyl-7-oxo-4,5,6,7-tetrahydro-benzoimidazol-1-yl)-2-methyl-benzonitrile] | 7300 nM |  | 130 nM |  | 
O=C1CCCc2ncn(-c3ccc(Cl)c(Cl)c3)c21 [C-ACC, 3-(3,4-Dichloro-phenyl)-3,5,6,7-tetrahydro-benzoimidazol-4-one] | 1000 nM |  | 5.5 nM |  | 
N#C[C@H]1CC[C@H](n2cnc3c2C(=O)CCC3)CC1 [C-ACJ, trans-4-(7-Oxo-5,6-dihydro-4H-benzimidazol-1-yl)cyclohexanecarbonitrile] | 13000 nM |  | 30 nM |  | 
CC1(C)CC(=O)c2c(ncn2C2CCCCC2)C1 [C-ACK, 3-Cyclohexyl-6,6-dimethyl-3,5,6,7etrahydro-benzoimidazol-4-one] | 6100 nM |  | 260 nM |  | 
CC1(C)CC(=O)c2c(ncn2C2CCc3cc(Br)ccc3C2)C1 (stereo not drawn) [C-ACM, 3-(6-Bromo-1,2,3,4-tetrahydro-naphthalen-2-yl)-6,6-dimethyl-3,5,6,7-tetrahydro-benzoimidazol-4-on] | > 30000 nM |  | 53 nM |  | 
CC1(C)CC(=O)c2c(ncn2C2CCC3CCCCC3C2)C1 (stereo not drawn) [C-ACO, 3-(Decahydro-naphthalen-2-yl)-6,6-dimethyl-3,5,6,7-tetrahydro-benzoimdazol-4-one] | 14000 nM |  | 420 nM |  | 
CC1(C)CC(=O)c2c(ncn2C2CCCc3ccccc32)C1 (stereo not drawn) [C-ACS, 6,6-Dimethyl-3-(1,2,3,4-tetrahydronaphthalen-1-yl)-3,5,6,7-tetrahydro-benzoimidazol-4-one] |  |  | 93 nM | 26000 nM | 
CC(=O)Nc1ccc(Cn2cnc3c2C(=O)CC(C)(C)C3)cc1 [C-ADE, N-[4-(5,5-Dimethyl-7-oxo-4,5,6,7-tetrahydro-benzoimidazol-1-ylmethyl)-phenyl]-acetamide] | 1900 nM |  | 58 nM |  | 
CC1(C)CC(=O)c2c(ncn2C2Cc3ccccc3C2)C1 [C-ADG] | 61000 nM |  | 47 nM |  | 
CC1(C)CC(=O)c2c(ncn2[C@H]2CC[C@@H](C#N)CC2)C1 [C-ADL, 4-(5,5-Dimethyl-7-oxo-4,5,6,7-tetrahydro-benzoimidazol-1-yl)-cyclohexanecarbonitrile] | 7900 nM |  | 22 nM |  | 
CC1(C)CC(=O)c2c(ncn2Cc2ccc(C(=O)N3CC[C@@H](O)C3)cc2)C1 [C-ADT, 3-[4-((R)-3-Hydroxy-pyrrolidine-1-carbonyl)-benzyl]-6,6-dimethyl-3,5,6,7-tetrahydro-benzoimidazol-4-one] | 29000 nM |  | 290 nM |  | 
N#Cc1ccc(-n2cnc3c2C(=O)CCC3)nc1 [C-ADW, 6-(7-Oxo-4,5,6,7-tetrahydro-benzoimidazol-1-yl)-nicotinonitrile] | 25000 nM |  |  |  | 290 nM
N#Cc1ccc(-n2cnc3c2C(=O)CC(CO)C3)cc1Cl (stereo not drawn) [C-AED, 2-Chloro-4-(5-hydroxymethyl-7-oxo-4,5,6,7-tetrahydro-benzoimidazol-1-yl)-benzonitrile] |  |  | 18 nM | 8600 nM | 
CN(C)C(=O)[C@H]1CC(=O)c2c(ncn2-c2ccc(C#N)c(Cl)c2)C1 [C-AEE, (R)-1-(3-Chloro-4-cyano-phenyl)-7-oxo-4,5,6,7-tetrahydro-1H-benzoimidazole-5-carboxylic acid dimethylamide] |  |  | 190 nM | > 30000 nM | 
